7 molecules from US4973578A, “Synthetic peptides derived from the alpha-subunit of human lycoprotein hormones” (Mayo Foundation for Medical Education and Research, priority 1988, dated 1990) can be followed below.

This assay addresses T1, TSH receptor on human thyroid membranes (Homo sapiens, UniProt P16473).
T1 construct: Thyroid tissue obtained at surgery from patients with Graves' disease was prepared as described by Takahashi et al; from tissue; host or cells: human thyroid tissue from Graves' disease patients, 2000xg membrane fraction
Put plainly: TSH radioreceptor assay: inhibition of 125I-bTSH binding to human thyroid membrane preparations. The settings on record: for IC50: read-out: bTSH ED50 (effective dose necessary to inhibit binding of 125I-bTSH by 50%). The method, then:
Thyroid tissue obtained at surgery from patients with Graves' disease was prepared as described by Takahashi et al., J. Clin. Endocrinol. Metab. 47:870 (1978), the disclosure of which is incorporated herein. Briefly, the tissue was dissected free of fibrous material, minced with scissors, and homogenized with Polytron homogenizer. The 2000×g fraction was collected by centrifugation, washed and resuspended in 40 mM Tris, 0.1% Bovine Serum Albumin (BSA) pH 7.4 at a concentration of 100 mg equivalents of wet tissue per milliliter. The preparation was stored at -70° C. until used for assay.
Highly purified bovine TSH (30 IU/mg, supplied by Dr. J. G. Pierce, UCLA) was radio-iodinated (Na^125 I, Amersham, Chicago) by a gentle lactoperoxidase procedure described by Takahashi et al., supra, then purified by Sephadex G-100 chromatography.
The membrane assay incubation mixture consisted of […] of the 2000×g membrane fraction, 0.125 ng ^125 I bTSH (approximately 20,000 cpm, 5×10^-12 M), 100 ul of 1% Triton X-100 and noted amounts of test materials in a final volume of 0.5 ml of 40 mM Tris-HCl pH 7.4 plus 0.1% BSA. Nonspecific binding was determined by addition of excess unlabeled bTSH (200 mU/ml, Sigma, St. Louis). After 2 hrs incubation at 25° C., 200 ul of 5 mg/ml bovine gamma globulin and 1 ml 30% polyethylene glycol 6000 (Baker, Phillipsburg, N.J.) in 1M NaCl was added to each tube and the tubes centrifuged at 4000 rpm for 25 minutes. The supernatants were aspirated and pellets counted in a gamma counter. Specific binding averaged 25% of total counts.
FIG. 1 reports 5×10^-12 M labeled bTSH incubated with 10 mg equivalents (wet weight) of 2000×g fraction of thyroid membranes with varying concentrations of unlabeled TSH or synthetic α-subunit peptides. Nonspecific binding was determined in the presence of excess unlabeled TSH.

Setting [1] is: human thyroid membrane homogenates, ± S.E.

Residues, ends and D or L forms follow the SMILES beside them. Some results are limits rather than exact numbers.

T1 sequence (P16473 21-764): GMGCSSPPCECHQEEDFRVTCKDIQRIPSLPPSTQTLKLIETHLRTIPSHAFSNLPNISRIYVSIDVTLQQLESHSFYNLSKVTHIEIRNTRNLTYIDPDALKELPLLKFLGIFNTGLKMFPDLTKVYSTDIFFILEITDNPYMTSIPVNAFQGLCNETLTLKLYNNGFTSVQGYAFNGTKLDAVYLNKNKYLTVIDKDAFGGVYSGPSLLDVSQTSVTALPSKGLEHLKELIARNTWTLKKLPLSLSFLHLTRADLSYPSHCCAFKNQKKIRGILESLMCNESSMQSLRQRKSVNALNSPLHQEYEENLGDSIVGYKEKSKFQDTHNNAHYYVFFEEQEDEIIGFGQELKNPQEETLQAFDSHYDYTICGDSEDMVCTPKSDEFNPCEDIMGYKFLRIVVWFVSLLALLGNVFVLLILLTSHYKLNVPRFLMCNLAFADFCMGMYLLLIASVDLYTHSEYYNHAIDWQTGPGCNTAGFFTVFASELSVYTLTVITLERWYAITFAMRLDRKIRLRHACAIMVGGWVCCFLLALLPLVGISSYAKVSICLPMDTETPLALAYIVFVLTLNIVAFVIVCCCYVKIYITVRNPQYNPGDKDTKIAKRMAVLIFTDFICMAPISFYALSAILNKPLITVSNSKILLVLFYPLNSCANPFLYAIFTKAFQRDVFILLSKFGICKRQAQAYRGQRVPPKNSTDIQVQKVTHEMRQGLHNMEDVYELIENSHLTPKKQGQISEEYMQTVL

Turning to `CC(C)C[C@H](NC(=O)[C@@H](NC(=O)[C@H](CS)NC(=O)[C@H](CCC(=O)O)NC(=O)[C@@H]1CCCN1C(=O)[C@H](CS)NC(=O)[C@H](CC(=O)O)NC(=O)[C@H](CCC(N)=O)NC(=O)[C@@H](NC(=O)[C@H](CC(=O)O)NC(=O)[C@@H]1CCCN1C(=O)[C@H](C)N)C(C)C)[C@@H](C)O)C(=O)N[C@@H](CCC(N)=O)C(=O)N[C@@H](CCC(=O)O)C(=O)N[C@@H](CC(N)=O)C(N)=O` [α1-15, Ala--Pro--Asp--Val--Gln--Asp--Cys--Pro--Glu--Cys--Thr--Leu--Gln--Glu--Asn] (H-APDVQDCPECTLQEN-NH2), the IC50 under setting [1] was over 700 µM. Consider `CC[C@H](C)[C@H](NC(=O)[C@@H]1CCCN1C(=O)[C@H](C)NC(=O)CNC(=O)[C@@H]1CCCN1C(=O)[C@H](CCC(N)=O)NC(=O)[C@H](CO)NC(=O)[C@H](Cc1ccccc1)NC(=O)[C@H](Cc1ccccc1)NC(=O)[C@@H]1CCCN1C(=O)[C@H](CC(N)=O)NC(=O)[C@H](CCC(=O)O)NC(=O)[C@H](CCC(N)=O)NC(=O)[C@H](CC(C)C)NC(=O)[C@@H](N)[C@@H](C)O)C(N)=O` [α11-25, Thr--Leu--Gln--Glu--Asn--Pro--Phe--Phe--Ser--Gln--Pro--Gly--Ala--Pro--Ile] (H-TLQENPFFSQPGAPI-NH2), for which the “bTSH ED50 (effective dose necessary to inhibit binding of 125I-bTSH by 50%)” value under setting [1] is reported as “no activity”. In the case of `CC(C)C[C@H](NC(=O)[C@@H]1CCCN1C(=O)[C@@H](NC(=O)[C@@H]1CCCN1C(=O)[C@H](Cc1ccc(O)cc1)NC(=O)[C@H](C)NC(=O)[C@H](CCCNC(=N)N)NC(=O)[C@H](CO)NC(=O)[C@H](Cc1ccccc1)NC(=O)[C@H](CS)NC(=O)[C@@H](N)CS)[C@@H](C)O)C(=O)N[C@@H](CCCNC(=N)N)C(=O)N[C@@H](CO)C(=O)N[C@@H](CCCCN)C(=O)N[C@@H](CCCCN)C(N)=O` [α31-45, Cys--Cys--Phe--Ser--Arg--Ala--Tyr--Pro--Thr--Pro--Leu--Arg--Ser--Lys--Lys] (H-CCFSRAYPTPLRSKK-NH2), the “displacement of 125I-bTSH label” value (at concentrations greater than 1×10^-5 m, FIG. 1) is listed as “more than 80%”. The IC50 under setting [1] turned out to be 31.2 ± 3.8 µM.

For `CSCC[C@H](NC(=O)[C@@H](NC(=O)[C@H](CCCCN)NC(=O)[C@H](CCCCN)NC(=O)[C@H](CO)NC(=O)[C@H](CCCNC(=N)N)NC(=O)[C@@H](N)CC(C)C)[C@@H](C)O)C(=O)N[C@@H](CC(C)C)C(=O)N[C@H](C(=O)N[C@@H](CCC(N)=O)C(=O)N[C@@H](CCCCN)C(=O)N[C@@H](CC(N)=O)C(=O)N[C@H](C(=O)N[C@H](C(=O)N[C@@H](CO)C(N)=O)[C@@H](C)O)C(C)C)C(C)C` [α41-55, Leu--Arg--Ser--Lys--Lys--Thr--Met--Leu--Val--Gln Lys--Asn--Val--Thr--Ser] (H-LRSKKTMLVQKNVTS-NH2), the IC50 under setting [1] amounted to 171 ± 28.3 µM. Same read-out and setting: for `CC(C)[C@H](NC(=O)[C@H](CS)NC(=O)[C@H](CS)NC(=O)[C@@H](NC(=O)[C@H](CO)NC(=O)[C@H](CCC(=O)O)NC(=O)[C@H](CO)NC(=O)[C@@H](NC(=O)[C@@H](NC(=O)[C@H](CC(N)=O)NC(=O)[C@@H](N)CCCCN)C(C)C)[C@@H](C)O)[C@@H](C)O)C(=O)N[C@@H](C)C(=O)N[C@@H](CCCCN)C(=O)N[C@@H](CO)C(=O)N[C@@H](Cc1ccc(O)cc1)C(N)=O` [α51-65, Lys--Asn--Val--Thr--Ser--Glu--Ser--Thr--Cys--Cys--Val--Ala--Lys--Ser--Tyr] (H-KNVTSESTCCVAKSY-NH2) the value was 237 ± 9.5 µM. The same measure, in the same setting: for `CSCC[C@H](NC(=O)[C@@H](NC(=O)[C@@H](NC(=O)[C@@H](NC(=O)[C@H](CCCNC(=N)N)NC(=O)[C@H](CC(N)=O)NC(=O)[C@H](Cc1ccc(O)cc1)NC(=O)[C@H](CO)NC(=O)[C@H](CCCCN)NC(=O)[C@H](C)NC(=O)[C@@H](N)C(C)C)C(C)C)[C@@H](C)O)C(C)C)C(=O)NCC(=O)NCC(=O)N[C@@H](Cc1ccccc1)C(=O)N[C@@H](CCCCN)C(N)=O` [α61-75, Val--Ala--Lys--Ser--Tyr--Asn--Arg--Val--Thr--Val--Met--Gly--Gly--Phe--Lys] (H-VAKSYNRVTVMGGFK-NH2) the value was over 700 µM.

`CSCC[C@H](N)C(=O)NCC(=O)NCC(=O)N[C@@H](Cc1ccccc1)C(=O)N[C@@H](CCCCN)C(=O)N[C@H](C(=O)N[C@@H](CCC(=O)O)C(=O)N[C@@H](CC(N)=O)C(=O)N[C@@H](Cc1c[nH]cn1)C(=O)N[C@H](C(=O)N[C@@H](C)C(=O)N[C@@H](CS)C(=O)N[C@@H](Cc1c[nH]cn1)C(=O)N[C@@H](CS)C(=O)N[C@@H](CO)C(N)=O)[C@@H](C)O)C(C)C` [α71-85, Met--Gly--Gly--Phe--Lys--Val--Glu--Asn--His--Thr--Ala--Cys--His--Cys--Ser] (H-MGGFKVENHTACHCS-NH2): the IC50 under setting [1] is over 700 µM.
